Experimental data reported in ChEMBL document CHEMBL4706677, “Design, synthesis, and biological evaluation of 1,3,6,7-tetrahydroxyxanthone derivatives as phosphoglycerate mutase 1 inhibitors” (Bioorg Med Chem Lett, 2021).

Experiments:
[1] = target: Phosphoglycerate mutase 1 (Homo sapiens, UniProt P18669); experiment: Inhibition of PGAM1 (unknown origin)
[2] = test system: NCI-H1299; experiment: Antiproliferative activity against human NCI-H1299 cells assessed as inhibition of cell proliferation; format: functional, cell-based

Phosphoglycerate mutase 1, sequence (P18669 whole entry): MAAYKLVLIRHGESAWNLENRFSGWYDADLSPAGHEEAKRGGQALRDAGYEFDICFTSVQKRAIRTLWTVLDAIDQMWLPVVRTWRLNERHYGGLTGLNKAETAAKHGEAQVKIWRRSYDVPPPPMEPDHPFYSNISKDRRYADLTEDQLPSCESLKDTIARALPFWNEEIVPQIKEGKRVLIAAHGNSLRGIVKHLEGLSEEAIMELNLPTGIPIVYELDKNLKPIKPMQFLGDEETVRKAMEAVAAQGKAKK

Row | SMILES | IC50 [1] [µM] | EC50 [2] [µM]
1 | CC(C)=CCc1c(O)c(O)cc2oc3cc(O)cc(O)c3c(=O)c12 | 3.4 | 47.7
2 | O=c1c2ccccc2oc2ccccc12 [XANTHONE] | 0.5 | –
3 | COc1c(OCCN2CCN(C)CC2)cc2oc3cc(OCCN4CCN(C)CC4)c(CC=C(C)C)c(O)c3c(=O)c2c1CC=C(C)C | > 20 | –
4 | O=c1c2c(O)cc(O)cc2oc2cc(O)c(O)c(CCCc3ccccc3)c12 | 1.5 | 41.6
5 | COc1c(OCCN(C)C)cc2oc3cc(OCCN(C)C)c(CC=C(C)C)c(O)c3c(=O)c2c1CC=C(C)C | > 20 | –
6 | O=c1c2cc(O)c(O)cc2oc2cc(O)cc(OCCCCN3CCCCC3)c12 | > 20 | –
7 | COc1c(O)cc2oc3cc(O)c(CC=C(C)C)c(O)c3c(=O)c2c1CC=C(C)C [MANGOSTIN] | 7.2 | –
8 | O=c1c2cc(O)c(O)cc2oc2cc(O)cc(OCCCCN3CCc4ccccc43)c12 | 5.7 | 28.1
9 | CCCc1c(O)c(O)cc2oc3cc(O)cc(O)c3c(=O)c12 | 20 | –
10 | CCCCCCCCOc1cc(O)cc2oc3cc(O)c(O)cc3c(=O)c12 | 2.8 | 3.4
11 | CCCCC=CCc1c(O)c(O)cc2oc3cc(O)cc(O)c3c(=O)c12 | 2.8 | 13.5
12 | CCCCOc1cc(O)cc2oc3cc(O)c(O)cc3c(=O)c12 | 12.8 | 60
13 | O=C1c2ccccc2C(=O)c2c1cc(S(=O)(=O)Nc1ccc(C(F)(F)F)cc1)c(O)c2O | – | 26.2
14 | CC(C)=CCc1c(O)cc2oc3cc(O)c(O)c(CC=C(C)C)c3c(=O)c2c1O | 1.9 | 2.2

Continued, values first:

Row | IC50 [1] [µM] | EC50 [2] [µM] | SMILES
15 | > 20 | – | COc1c(OCCO)cc2oc3cc(OCCO)c(CC=C(C)C)c(O)c3c(=O)c2c1CC=C(C)C
16 | > 20 | – | COc1c(OCC(=O)N(C)C)cc2oc3cc(OCC(=O)N(C)C)c(CC=C(C)C)c(O)c3c(=O)c2c1CC=C(C)C
17 | > 20 | – | O=C(CCCOc1cc(O)cc2oc3cc(O)c(O)cc3c(=O)c12)N1CCCCC1
18 | > 20 | – | COc1c(OC(=O)NC(C)C)cc2oc3cc(OC(=O)NC(C)C)c(CC=C(C)C)c(O)c3c(=O)c2c1CC=C(C)C
19 | > 20 | – | COc1cc(O)c2c(=O)c3c(CCCc4ccccc4)c(O)c(OC)cc3oc2c1
20 | > 20 | – | CCNC(=O)Oc1cc2oc3cc(OC(=O)NCC)c(OC)c(CC=C(C)C)c3c(=O)c2c(O)c1CC=C(C)C
